Reference: PubChem BioAssay (NCI)
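In this assay, cells in 96-well plates receive the compound at five concentrations for 48 hours. Endpoints are linearly interpolated between the surrounding concentrations. Abbreviation: GI50, concentration required for 50% inhibition of growth. At the TGI there is no net growth.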

How the values were obtained:
Assay in all cases: growth of human tumour cells (NCI), 48 h
[1] = tested on: NCI-H226 lung
[2] = tested on: NCI-H23 lung
[3] = tested on: NCI-H460 lung
[4] = tested on: NCI-H522 lung
[5] = tested on: NCI/ADR-RES ovarian
[6] = tested on: OVCAR-3 ovarian
[7] = tested on: OVCAR-4 ovarian
[8] = tested on: OVCAR-5 ovarian
[9] = tested on: OVCAR-8 ovarian
[10] = tested on: PC-3 prostate
[11] = tested on: RPMI-8226 leukemia
[12] = tested on: SF-268 CNS
[13] = tested on: SF-539 CNS
[14] = tested on: SK-MEL-2 melanoma
[15] = tested on: SK-MEL-28 melanoma
[16] = tested on: SK-MEL-5 melanoma
[17] = tested on: SK-OV-3 ovarian
[18] = tested on: SN12C renal
[19] = tested on: SNB-19 CNS
[20] = tested on: SNB-75 CNS
[21] = tested on: SR leukemia
[22] = tested on: T-47D breast
[23] = tested on: TK-10 renal
[24] = tested on: U251 CNS
[25] = tested on: UACC-257 melanoma
[26] = tested on: UACC-62 melanoma
[27] = tested on: UO-31 renal

C#C[C@]1(O)CC[C@H]2[C@@H]3CC=C4c5sc(Nc6cc(OC)ccc6OC)nc5CC[C@]4(C)[C@H]3CC[C@@]21C
TGI [1]: 20.9 µM | GI50 [2]: 2490 nM | TGI [2]: 28.3 µM | GI50 [3]: 2160 nM | TGI [3]: 15.1 µM | GI50 [4]: 3.9 µM | TGI [4]: 29.8 µM | GI50 [5]: 3.11 µM | TGI [5]: > 100 µM | GI50 [6]: 2390 nM | TGI [6]: 9.14 µM | GI50 [7]: 4.46 µM | TGI [7]: > 100 µM | GI50 [8]: 4.14 µM | TGI [8]: 25.7 µM | GI50 [9]: 2940 nM | TGI [9]: > 100 µM | GI50 [10]: 627 nM | TGI [10]: 30 µM | GI50 [11]: 193 nM | TGI [11]: 694 nM | GI50 [12]: 3.55 µM | TGI [12]: 33 µM | GI50 [13]: 449 nM | TGI [13]: 1680 nM | GI50 [14]: 2280 nM | TGI [14]: 42.1 µM | GI50 [15]: 406 nM | TGI [15]: 5.32 µM | GI50 [16]: 2300 nM | TGI [16]: 5.58 µM | GI50 [17]: 1080 nM | TGI [17]: 4.37 µM | GI50 [18]: 3.9 µM | TGI [18]: 32.7 µM | GI50 [19]: 3.63 µM | TGI [19]: 24.3 µM | GI50 [20]: 386 nM | TGI [20]: 13.7 µM | GI50 [21]: 306 nM | TGI [21]: 24.8 µM | GI50 [22]: 3.04 µM | TGI [22]: > 100 µM | GI50 [23]: 4.15 µM | TGI [23]: 27.5 µM | GI50 [24]: 643 nM | TGI [24]: 13.3 µM | GI50 [25]: 1950 nM | TGI [25]: 9.18 µM | GI50 [26]: 1560 nM | TGI [26]: 9.02 µM | GI50 [27]: 1410 nM | TGI [27]: 12.9 µM
